Assay results taken from ChEMBL document CHEMBL1138295, “Multiple N-methylation by a designed approach enhances receptor selectivity” (J Med Chem, 2007).
Square brackets hold non-standard residues; d marks the D form. Peptide text beside a SMILES is read from it.

How the values were obtained:
Integrin alpha-V/beta-3 = Integrin alpha-V/beta-3 (Homo sapiens, UniProt P05106+P06756); assay: Binding affinity to integrin alpha-v-beta-3 receptor by solid phase binding assay; assay type: protein-complex assay
Chain of Integrin alpha-V/beta-3 (P05106 27-788 limits assumed): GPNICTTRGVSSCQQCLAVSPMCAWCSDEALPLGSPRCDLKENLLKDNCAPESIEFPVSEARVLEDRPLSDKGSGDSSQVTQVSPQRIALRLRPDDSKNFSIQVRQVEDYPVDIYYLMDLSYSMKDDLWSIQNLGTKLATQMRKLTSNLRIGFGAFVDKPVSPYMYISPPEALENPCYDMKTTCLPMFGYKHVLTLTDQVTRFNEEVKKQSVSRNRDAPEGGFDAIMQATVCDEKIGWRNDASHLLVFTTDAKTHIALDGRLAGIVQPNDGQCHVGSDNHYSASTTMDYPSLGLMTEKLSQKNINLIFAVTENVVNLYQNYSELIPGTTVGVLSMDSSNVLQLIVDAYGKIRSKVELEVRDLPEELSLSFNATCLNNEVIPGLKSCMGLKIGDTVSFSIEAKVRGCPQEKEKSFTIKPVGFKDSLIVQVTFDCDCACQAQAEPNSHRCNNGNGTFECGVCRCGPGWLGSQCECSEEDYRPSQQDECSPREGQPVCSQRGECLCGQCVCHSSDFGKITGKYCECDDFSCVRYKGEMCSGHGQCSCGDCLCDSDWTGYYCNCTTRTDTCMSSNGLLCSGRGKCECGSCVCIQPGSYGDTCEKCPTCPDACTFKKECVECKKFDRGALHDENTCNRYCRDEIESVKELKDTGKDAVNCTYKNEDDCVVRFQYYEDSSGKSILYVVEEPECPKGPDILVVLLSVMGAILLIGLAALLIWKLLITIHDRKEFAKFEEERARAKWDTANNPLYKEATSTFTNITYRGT
Chain of Integrin alpha-V/beta-3 (P06756 31-889 limits assumed): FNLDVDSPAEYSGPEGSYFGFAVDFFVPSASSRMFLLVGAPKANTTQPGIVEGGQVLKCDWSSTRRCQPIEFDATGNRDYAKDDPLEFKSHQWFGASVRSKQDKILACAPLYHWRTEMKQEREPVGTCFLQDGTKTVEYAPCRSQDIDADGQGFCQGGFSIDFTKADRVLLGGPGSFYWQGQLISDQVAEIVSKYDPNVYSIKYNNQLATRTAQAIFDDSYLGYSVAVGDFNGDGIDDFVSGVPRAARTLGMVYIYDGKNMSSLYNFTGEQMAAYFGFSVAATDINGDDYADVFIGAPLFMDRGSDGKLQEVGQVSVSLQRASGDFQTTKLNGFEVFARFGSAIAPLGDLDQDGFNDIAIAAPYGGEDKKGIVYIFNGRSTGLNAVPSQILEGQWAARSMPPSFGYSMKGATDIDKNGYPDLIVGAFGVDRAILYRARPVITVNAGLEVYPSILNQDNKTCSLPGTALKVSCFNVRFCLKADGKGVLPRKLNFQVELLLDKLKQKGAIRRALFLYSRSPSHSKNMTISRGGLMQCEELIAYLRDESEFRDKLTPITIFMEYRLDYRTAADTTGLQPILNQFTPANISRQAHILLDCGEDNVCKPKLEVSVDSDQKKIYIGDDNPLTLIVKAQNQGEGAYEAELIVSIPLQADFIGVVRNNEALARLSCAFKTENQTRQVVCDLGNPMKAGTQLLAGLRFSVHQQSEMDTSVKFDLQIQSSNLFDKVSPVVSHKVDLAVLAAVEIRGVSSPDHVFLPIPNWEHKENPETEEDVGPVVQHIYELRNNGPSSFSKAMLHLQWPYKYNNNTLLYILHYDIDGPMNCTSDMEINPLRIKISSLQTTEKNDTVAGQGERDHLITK
Chain of Integrin alpha-V/beta-3 (P06756 891-1048 limits assumed): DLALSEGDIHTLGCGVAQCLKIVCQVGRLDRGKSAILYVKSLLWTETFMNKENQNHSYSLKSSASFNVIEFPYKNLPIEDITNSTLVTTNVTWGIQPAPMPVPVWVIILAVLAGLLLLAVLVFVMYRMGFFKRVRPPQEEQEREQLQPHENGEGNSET

Integrin alpha-5/beta-1 = Integrin alpha-5/beta-1 (Homo sapiens, UniProt P05556+P08648); assay: Binding affinity to integrin alpha-5-beta-1 receptor by solid phase binding assay; assay type: protein-complex assay
Chain of Integrin alpha-5/beta-1 (P05556 21-798 limits assumed): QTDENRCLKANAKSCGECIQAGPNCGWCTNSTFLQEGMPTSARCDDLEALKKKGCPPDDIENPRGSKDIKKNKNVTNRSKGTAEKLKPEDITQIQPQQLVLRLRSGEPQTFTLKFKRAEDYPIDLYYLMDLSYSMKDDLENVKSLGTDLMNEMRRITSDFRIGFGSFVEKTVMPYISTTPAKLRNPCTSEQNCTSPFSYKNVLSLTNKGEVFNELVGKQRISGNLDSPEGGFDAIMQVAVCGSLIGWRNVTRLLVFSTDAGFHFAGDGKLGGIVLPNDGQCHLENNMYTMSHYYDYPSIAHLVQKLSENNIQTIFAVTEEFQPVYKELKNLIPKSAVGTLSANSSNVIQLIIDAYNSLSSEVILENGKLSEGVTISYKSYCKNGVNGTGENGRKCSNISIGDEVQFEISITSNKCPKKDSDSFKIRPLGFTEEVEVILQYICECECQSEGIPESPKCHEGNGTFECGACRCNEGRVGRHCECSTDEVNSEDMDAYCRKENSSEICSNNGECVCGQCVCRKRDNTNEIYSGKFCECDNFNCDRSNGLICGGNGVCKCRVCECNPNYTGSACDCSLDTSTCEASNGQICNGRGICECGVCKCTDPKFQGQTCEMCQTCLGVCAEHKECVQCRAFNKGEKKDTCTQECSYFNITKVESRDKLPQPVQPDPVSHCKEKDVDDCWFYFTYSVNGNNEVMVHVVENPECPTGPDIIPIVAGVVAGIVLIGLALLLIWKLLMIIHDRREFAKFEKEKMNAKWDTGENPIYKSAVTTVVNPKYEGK
Chain of Integrin alpha-5/beta-1 (P08648 42-894 limits assumed): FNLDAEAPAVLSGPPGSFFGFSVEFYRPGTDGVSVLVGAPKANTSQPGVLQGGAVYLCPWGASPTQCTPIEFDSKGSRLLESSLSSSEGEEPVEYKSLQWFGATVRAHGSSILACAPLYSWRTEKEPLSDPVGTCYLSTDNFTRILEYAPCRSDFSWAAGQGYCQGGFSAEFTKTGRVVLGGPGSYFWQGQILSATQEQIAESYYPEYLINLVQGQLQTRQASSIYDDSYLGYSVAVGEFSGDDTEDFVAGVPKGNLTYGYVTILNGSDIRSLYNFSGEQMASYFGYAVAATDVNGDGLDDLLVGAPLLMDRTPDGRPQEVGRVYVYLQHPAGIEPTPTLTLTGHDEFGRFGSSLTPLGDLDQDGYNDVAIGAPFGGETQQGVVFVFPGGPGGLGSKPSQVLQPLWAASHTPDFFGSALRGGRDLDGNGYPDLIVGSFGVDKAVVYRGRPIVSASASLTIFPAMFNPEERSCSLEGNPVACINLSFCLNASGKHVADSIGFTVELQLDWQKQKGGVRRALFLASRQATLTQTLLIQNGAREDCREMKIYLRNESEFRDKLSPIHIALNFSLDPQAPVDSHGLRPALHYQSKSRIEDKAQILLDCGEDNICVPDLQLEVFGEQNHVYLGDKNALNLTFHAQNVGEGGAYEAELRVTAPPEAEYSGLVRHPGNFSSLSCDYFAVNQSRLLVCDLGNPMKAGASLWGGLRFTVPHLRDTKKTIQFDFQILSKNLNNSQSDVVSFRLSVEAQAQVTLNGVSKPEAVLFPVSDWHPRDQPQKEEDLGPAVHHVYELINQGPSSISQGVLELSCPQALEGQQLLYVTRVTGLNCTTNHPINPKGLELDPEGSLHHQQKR
Chain of Integrin alpha-5/beta-1 (P08648 895-1049 limits assumed): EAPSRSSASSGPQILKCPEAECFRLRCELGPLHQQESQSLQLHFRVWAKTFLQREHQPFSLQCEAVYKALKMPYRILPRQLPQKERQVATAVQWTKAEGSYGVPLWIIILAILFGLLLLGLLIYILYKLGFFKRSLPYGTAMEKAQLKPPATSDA

[1] = biological target: Integrin alpha-IIb/beta-3 (Homo sapiens, UniProt P05106+P08514); assay: Binding affinity to integrin alpha-2b-beta-3 receptor by solid phase binding assay; assay type: protein-complex assay
Chain of Integrin alpha-IIb/beta-3 (P05106 27-788 limits assumed): as the sequence (P05106 27-788 limits assumed) above
Chain of Integrin alpha-IIb/beta-3 (P08514 32-887 limits assumed): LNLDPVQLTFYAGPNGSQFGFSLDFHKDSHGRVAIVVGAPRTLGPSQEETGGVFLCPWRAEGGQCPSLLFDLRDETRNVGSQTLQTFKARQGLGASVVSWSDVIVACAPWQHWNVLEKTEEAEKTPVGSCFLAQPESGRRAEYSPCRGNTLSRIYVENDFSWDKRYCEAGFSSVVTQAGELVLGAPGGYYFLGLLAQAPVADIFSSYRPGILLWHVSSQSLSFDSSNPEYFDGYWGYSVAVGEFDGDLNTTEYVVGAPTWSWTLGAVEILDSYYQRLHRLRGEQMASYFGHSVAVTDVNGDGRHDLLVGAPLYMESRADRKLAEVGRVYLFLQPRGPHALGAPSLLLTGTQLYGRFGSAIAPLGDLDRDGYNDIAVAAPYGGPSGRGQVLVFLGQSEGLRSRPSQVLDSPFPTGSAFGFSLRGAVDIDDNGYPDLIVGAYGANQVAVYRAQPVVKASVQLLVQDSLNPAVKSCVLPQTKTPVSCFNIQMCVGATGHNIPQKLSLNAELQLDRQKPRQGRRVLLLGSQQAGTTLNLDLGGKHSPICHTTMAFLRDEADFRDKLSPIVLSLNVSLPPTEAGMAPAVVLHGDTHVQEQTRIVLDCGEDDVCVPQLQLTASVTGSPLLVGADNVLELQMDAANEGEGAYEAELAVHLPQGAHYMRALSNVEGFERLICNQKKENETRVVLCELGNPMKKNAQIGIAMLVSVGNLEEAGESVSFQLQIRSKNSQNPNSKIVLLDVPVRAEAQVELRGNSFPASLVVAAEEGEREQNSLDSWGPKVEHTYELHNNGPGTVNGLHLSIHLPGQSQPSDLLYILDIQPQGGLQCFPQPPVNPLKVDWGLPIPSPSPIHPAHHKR
Chain of Integrin alpha-IIb/beta-3 (P08514 891-1039 limits assumed): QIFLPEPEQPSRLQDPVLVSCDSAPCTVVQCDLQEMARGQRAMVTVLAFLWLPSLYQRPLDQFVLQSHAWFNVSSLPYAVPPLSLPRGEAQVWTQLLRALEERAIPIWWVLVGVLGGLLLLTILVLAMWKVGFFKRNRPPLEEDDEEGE

[2] = Permeability across human Caco-2 cell monolayer; assay type: ADME, cell-based
Homo sapiens = species: Homo sapiens; assay: Selectivity for integrin alpha2bbeta3 receptor over integrin alphavbeta3 receptor

| Compound | IC50 (Integrin alpha-V/beta-3) | IC50 (Integrin alpha-5/beta-1) | IC50 [1] | Papp [2] | Ratio IC50 (Homo sapiens) |
| --- | --- | --- | --- | --- | --- |
| CC(C)C[C@@H]1NC(=O)[C@@H](Cc2ccccc2)N(C)C(=O)[C@H](CC(=O)O)NC(=O)CNC(=O)[C@H](CCCNC(=N)N)N(C)C(=O)CNC1=O | 2.73 µM | > 20 µM | 0.165 µM | 0.03 ×10⁻⁶ cm/s | 16 |
| CC(C)C[C@H]1C(=O)NCC(=O)N(C)[C@@H](CCCN=C(N)N)C(=O)NCC(=O)N[C@@H](CC(=O)O)C(=O)N(C)[C@H](Cc2ccccc2)C(=O)N1C | 12.2 µM | > 20 µM | 0.03 µM | 0.03 ×10⁻⁶ cm/s | – |
| CC(C)C[C@@H]1NC(=O)[C@@H](Cc2ccccc2)NC(=O)[C@H](CC(=O)O)NC(=O)CNC(=O)[C@H](CCCNC(=N)N)NC(=O)CNC1=O (cyclo(GRGD[dF]L)) | 0.1 µM | 0.74 µM | 0.195 µM | 0.03 ×10⁻⁶ cm/s | 0.5 |
| CC(C)C[C@H]1C(=O)NCC(=O)N(C)[C@@H](CCCNC(=N)N)C(=O)NCC(=O)N[C@@H](CC(=O)O)C(=O)N[C@H](Cc2ccccc2)C(=O)N1C | 1.3 µM | 20 µM | 0.015 µM | 0.03 ×10⁻⁶ cm/s | 86 |
| OC[C@@H](O)[C@@H](O)[C@H](O)[C@H](O)CO [MANNITOL] | – | – | – | 0.9 ×10⁻⁶ cm/s | – |
| CC(C)C[C@@H]1NC(=O)[C@@H](Cc2ccccc2)NC(=O)[C@H](CC(=O)O)NC(=O)CNC(=O)[C@H](CCCNC(=N)N)N(C)C(=O)CNC1=O | – | – | – | – | 64 |
| CC(C)C[C@H]1C(=O)NCC(=O)N(C)[C@@H](CCCNC(=N)N)C(=O)NCC(=O)N[C@@H](CC(=O)O)C(=O)N(C)[C@H](Cc2ccccc2)C(=O)N1C | – | – | – | – | 406 |

Now from value to molecule:

| IC50 (Integrin alpha-V/beta-3) | IC50 (Integrin alpha-5/beta-1) | IC50 [1] | Papp [2] | Ratio IC50 (Homo sapiens) | Compound |
| --- | --- | --- | --- | --- | --- |
| 0.49 µM | 4.3 µM | 2 µM | 0.03 ×10⁻⁶ cm/s | – | CC(C)C[C@@H]1NC(=O)[C@@H](Cc2ccccc2)N(C)C(=O)[C@H](CC(=O)O)NC(=O)CNC(=O)[C@H](CCCN=C(N)N)NC(=O)CNC1=O |
| – | – | – | – | 2 | CC(C)C[C@H]1C(=O)NCC(=O)N[C@@H](CCCNC(=N)N)C(=O)NCC(=O)N[C@@H](CC(=O)O)C(=O)N(C)[C@H](Cc2ccccc2)C(=O)N1C |
| 0.77 µM | 1.2 µM | 0.012 µM | 0.03 ×10⁻⁶ cm/s | – | CC(C)C[C@@H]1NC(=O)[C@@H](Cc2ccccc2)NC(=O)[C@H](CC(=O)O)NC(=O)CNC(=O)[C@H](CCCN=C(N)N)N(C)C(=O)CNC1=O |
| – | – | – | – | 0.2 | CC(C)C[C@@H]1NC(=O)[C@@H](Cc2ccccc2)N(C)C(=O)[C@H](CC(=O)O)NC(=O)CNC(=O)[C@H](CCCNC(=N)N)NC(=O)CNC1=O |
| 1.2 µM | > 20 µM | 0.62 µM | 0.03 ×10⁻⁶ cm/s | – | CC(C)C[C@H]1C(=O)NCC(=O)N[C@@H](CCCN=C(N)N)C(=O)NCC(=O)N[C@@H](CC(=O)O)C(=O)N(C)[C@H](Cc2ccccc2)C(=O)N1C |
| – | – | – | – | 0.2 | CC(C)C[C@H]1C(=O)NCC(=O)N[C@@H](CCCNC(=N)N)C(=O)NCC(=O)N[C@@H](CC(=O)O)C(=O)N[C@H](Cc2ccccc2)C(=O)N1C |
| 0.103 µM | 3.9 µM | 0.56 µM | 0.03 ×10⁻⁶ cm/s | – | CC(C)C[C@H]1C(=O)NCC(=O)N[C@@H](CCCN=C(N)N)C(=O)NCC(=O)N[C@@H](CC(=O)O)C(=O)N[C@H](Cc2ccccc2)C(=O)N1C |
